According to ChEMBL document CHEMBL4732119, “Design, synthesis and pharmacological evaluation of bicyclic and tetracyclic pyridopyrimidinone analogues as new KRAS inhibitors” (Eur J Med Chem, 2021):

Legend:
[1] = system: GTPase KRas (Homo sapiens), P01116 [G12C]; settings: NCI-H358, dose 10-1000 nM, time 6.0 hrs
[2] = system: GTPase KRas (Homo sapiens), P01116 [G12C]; assay: Inhibition of KRAS G12C mutant in human NCI-H358 cells assessed as reduction in AKT phosphorylation measured after 6 hrs by Western blot analysis; format: cell-based; settings: dose 10-1000 nM
[3] = system: GTPase KRas (Homo sapiens), P01116 [G12C]; assay: Inhibition of KRAS G12C mutant in human NCI-H358 cells assessed as reduction in ERK phosphorylation measured after 6 hrs by Western blot analysis; format: cell-based; settings: dose 10-1000 nM

Measured: inhibition

GTPase KRas (Homo sapiens), P01116 [G12C], sequence (P01116 whole entry G12C): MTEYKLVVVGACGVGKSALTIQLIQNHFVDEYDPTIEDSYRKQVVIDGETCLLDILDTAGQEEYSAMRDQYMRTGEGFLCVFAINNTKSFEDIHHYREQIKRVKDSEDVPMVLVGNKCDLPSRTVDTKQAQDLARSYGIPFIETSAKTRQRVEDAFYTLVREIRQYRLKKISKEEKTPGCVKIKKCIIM

C=CC(=O)N1CCN(c2nc(=O)n(-c3c(C)ccnc3C(C)C)c3c(F)c(-c4c(O)cccc4F)ncc23)[C@@H](C)C1 (stereo in doubt; 26a)
active: [1] Dose-dependent effect | [2] Dose-dependent effect | [3] Dose-dependent effect
